Reference: paper PMC12621184, “Synthesis and Pharmacological Characterization of Nociceptin/Orphanin FQ Dimeric Ligands” (Journal of Medicinal Chemistry, 2025)
pEC50: −log10 of the molar value. Several values for one entry are separate records, joined by “and”; a condition that tells them apart may be missing. Equal values may be shown once. Bridge positions count the residues as written; N and C are the ends. Peptide text beside a SMILES is read from it. I, II: the chains in the order shown.

Columns and labels:
human μ opioid receptor = molecular target: T1, human μ opioid receptor (Homo sapiens, UniProt P35372); assay: Calcium mobilization assay, CHO cells with μ receptor and chimeric G protein; format: cell-based; conditions: CHO cells coexpressing human μ receptor and Gαqi5; 5 experiments in duplicate; read-out: calcium mobilization at μ receptor, concentration up to which inactive
T1 construct: expressed in transfected cells
T1 sequence (P35372 whole entry): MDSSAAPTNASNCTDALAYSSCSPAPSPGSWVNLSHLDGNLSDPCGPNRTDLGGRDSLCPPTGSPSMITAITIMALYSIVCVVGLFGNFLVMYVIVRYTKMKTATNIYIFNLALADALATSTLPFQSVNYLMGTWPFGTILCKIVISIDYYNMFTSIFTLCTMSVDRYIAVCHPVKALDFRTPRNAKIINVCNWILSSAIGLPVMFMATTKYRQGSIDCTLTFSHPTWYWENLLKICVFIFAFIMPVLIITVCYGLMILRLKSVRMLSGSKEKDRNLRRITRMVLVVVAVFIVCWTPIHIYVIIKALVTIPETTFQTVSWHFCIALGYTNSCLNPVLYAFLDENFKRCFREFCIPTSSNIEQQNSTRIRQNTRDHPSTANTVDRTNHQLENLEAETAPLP
Description: (§1) Chinese hamster ovary (CHO) cells stably coexpressing the human NOP, μ, or κ opioid receptors and the Gαqi5 protein or the human δ and the GαqG66Di5 protein were used in this assay. , Cells were cultured in DMEM/F-12 (1:1) medium supplemented with 10% FBS, 2 mM L-glutamine, […], 100 IU/mL penicillin, and 100 IU/mL streptomycin. Cells were maintained at 37 °C in a humidified atmosphere with 5% CO2 and were seeded at 50 000 cells/well into 96-well black, clear-bottom plates 24 h before test. Loading for 45 min with a solution consisting of HBSS supplemented with 2.5 mM probenecid, 3 μM Fluo-4 AM, and 0.01% pluronic acid ensures the calcium-sensitive dye (Fluo-4) reaches the needed concentration inside the cell, while the exchange of the solution with 100 μL/well of buffer consisting of HBSS with 20 mM HEPES, 2.5 mM probenecid, and 500 μM Brilliant Black allows for fluorescence background to decrease. Serial dilutions of ligands were prepared in HBSS buffer with 20 mM HEPES and 0.02% bovine serum albumin (BSA) to minimize the ligands’ stickiness to plasticware. The automated microplate reader FlexStation II (Molecular Devices, CA, US) was employed at 37 °C to detect changes in fluorescence intensity. The effects of all compounds were expressed as the maximum change in percentage over the baseline fluorescence measured in samples treated with vehicles. […]

[1] = system: mouse vas deferens from NOP(+/+) mice; assay: Electrically stimulated mouse vas deferens bioassay, NOP(+/+) tissues
Description: This study was approved by the Animal Welfare Body of the University of Ferrara and by the Italian Ministry of Health (authorization number CBCC2.N.BXI). Experiments were performed on an isolated mouse vas deferens. All experiments were conducted with mice bred and housed in the University of Ferrara’s animal facility under specific pathogen-free conditions (SPF). All mice were housed in cages with individual ventilation, with a constant temperature of 21 °C, 60% humidity, and a 12 h light/dark cycle. Food and water were provided ad libitum. CD-1 NOP(+/+) and CD-1 NOP(−/−) male mice, aged 9 to 12 months, were used. Animals were sacrificed on the day of the experiment with CO2 overdose. Bioassay experiments were performed as previously described. The tissues were suspended in 5 mL organ bath containing Krebs solution (NaCl 118.5 […]). The Krebs solution was oxygenated with 95% O2 and 5% CO2 and the temperature set at 33 °C with a resting tension of 0.3 g applied to the tissues. Tissues were stimulated through two platinum electrodes with a supramaximal rectangular pulse of 1 ms duration, 0.05 Hz frequency, and 80 V of amplitude. The electrically evoked contractions were measured isotonically by means of Basile strain gauge transducers (Basile, IT) and a recorder with a Power Lab 8 instrument (ADInstruments, CO, U.S.). Following an equilibration period of approximately 60 min, the contractions induced by electrical field stimulation were stable. At this time, cumulative concentration response curves were carried out.
(§2) Concentration-response curves to agonists were analyzed by a four-parameter logistic nonlinear regression model: Effect = baseline + (E max – baseline)/(1 + 10^((logEC50–log[ligand])slope)). […] Experimental data were expressed as mean ± sem of at least 5 experiments. Potency values were expressed as the mean and CL95%. In vitro E max values were analyzed by one-way ANOVA, while in vivo latency data were evaluated by one-way ANOVA followed by Dunnett’s post hoc test. The proportion of mice losing the righting reflex was compared by Fisher’s exact test performed on raw data. GraphPad Prism 10.0 software was used for all of the analyses. The terminology employed is consistent with the International Union of Basic and Clinical Pharmacology (IUPHAR) recommendations. ,

[2] = system: loss of the righting reflex (RR) in NOP(−/−) mice; assay: Loss of the righting reflex assay in NOP(−/−) mice; format: in vivo, mouse; conditions: 10 nmol, icv; N = 7–9 per group
Description: All of the experimental procedures adopted in the in vivo studies comply with the European Directive 2010/63/EU on protecting animals used for scientific purposes and Italian Legislative Decree no. 26 of March 4, 2014. These experiments were approved by the Animal Welfare Body of the University of Ferrara and by the Ministry of Health (authorization number 677/2024-PR). In vivo studies have been reported following ARRIVE guidelines. All experiments were conducted with mice bred and housed in the University of Ferrara’s animal facility under specific pathogen-free conditions. All mice were housed in cages with individual ventilation, with a constant temperature of 21 °C, 60% humidity, and a 12 h light/dark cycle. Food and water were provided ad libitum. […] When the animals lost RR, they were placed in a plastic cage, and the time was recorded by an expert observer, blind to drug treatments and/or genotype. […]
Concentration-response curves to agonists were analyzed by a four-parameter logistic nonlinear regression model: Effect = baseline + (E max – baseline)/(1 + 10^((logEC50–log[ligand])slope)). […] Experimental data were expressed as mean ± sem of at least 5 experiments. Potency values were expressed as the mean and CL95%. In vitro E max values were analyzed by one-way ANOVA, while in vivo latency data were evaluated by one-way ANOVA followed by Dunnett’s post hoc test. […]

human δ opioid receptor = molecular target: T2, human δ opioid receptor (Homo sapiens, UniProt P41143); assay: Calcium mobilization assay, CHO cells with δ receptor and chimeric G protein; format: cell-based; conditions: CHO cells coexpressing human δ receptor and GαqG66Di5; 5 experiments in duplicate; read-out: calcium mobilization at δ receptor, concentration up to which inactive
T2 construct: expressed in transfected cells
T2 sequence (P41143 whole entry): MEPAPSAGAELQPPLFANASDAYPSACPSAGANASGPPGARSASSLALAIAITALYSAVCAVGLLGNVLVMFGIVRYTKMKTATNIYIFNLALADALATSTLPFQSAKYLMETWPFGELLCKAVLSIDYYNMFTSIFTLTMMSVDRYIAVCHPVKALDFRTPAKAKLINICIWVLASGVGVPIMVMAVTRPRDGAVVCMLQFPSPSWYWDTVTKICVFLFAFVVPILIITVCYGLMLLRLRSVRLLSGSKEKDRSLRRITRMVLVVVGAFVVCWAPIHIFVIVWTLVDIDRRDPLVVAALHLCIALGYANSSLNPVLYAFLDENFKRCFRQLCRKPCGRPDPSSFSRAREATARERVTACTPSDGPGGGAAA
Description: as §1

human NOP = human NOP (Homo sapiens, UniProt P41146); assay: Calcium mobilization assay, CHO cells with NOP receptor and chimeric G protein; format: cell-based; design: expressed in transfected cells
Chain of human NOP (P41146 whole entry): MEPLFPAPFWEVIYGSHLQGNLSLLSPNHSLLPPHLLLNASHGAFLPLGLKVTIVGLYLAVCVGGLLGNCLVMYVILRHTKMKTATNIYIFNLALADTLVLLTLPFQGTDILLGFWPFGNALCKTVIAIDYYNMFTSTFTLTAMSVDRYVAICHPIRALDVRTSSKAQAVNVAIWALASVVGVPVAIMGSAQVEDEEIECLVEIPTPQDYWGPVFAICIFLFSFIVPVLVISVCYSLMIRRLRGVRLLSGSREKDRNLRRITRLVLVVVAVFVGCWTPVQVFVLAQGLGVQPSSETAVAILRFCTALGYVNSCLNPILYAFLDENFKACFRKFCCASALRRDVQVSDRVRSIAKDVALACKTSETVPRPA

[3] = system: loss of the righting reflex (RR) in mice; assay: Loss of the righting reflex assay in mice; format: in vivo, mouse; conditions: icv
Description: All of the experimental procedures adopted in the in vivo studies comply with the European Directive 2010/63/EU on protecting animals used for scientific purposes and Italian Legislative Decree no. 26 of March 4, 2014. These experiments were approved by the Animal Welfare Body of the University of Ferrara and by the Ministry of Health (authorization number 677/2024-PR). In vivo studies have been reported following ARRIVE guidelines. All experiments were conducted with mice bred and housed in the University of Ferrara’s animal facility under specific pathogen-free conditions. All mice were housed in cages with individual ventilation, with a constant temperature of 21 °C, 60% humidity, and a 12 h light/dark cycle. Food and water were provided ad libitum. CD-1 male and female mice, aged 2 to 4 months, were used. Details about the generation of NOP(−/−) and NOP(+/+) mice have been published previously; , these mice have been backcrossed on CD-1 strain in our laboratories. NOP(+/+) and NOP(−/−) littermates were obtained by mating with NOP(±) mice. All mice were genotyped using the polymerase chain reaction previously described. All mice were used only once. The RR assay was performed as previously described. […] Diazepam 15 mg/kg was injected ip. When the animals lost RR, they were placed in a plastic cage, and the time was recorded by an expert observer, blind to drug treatments and/or genotype. Animals were judged to have regained the RR response when they could correct themselves three times within 30 s. Sleeping time is defined as the amount of time between the loss and regaining of the RR; it was rounded to the nearest minute.
as §2

## C[C@H](NC(=O)CNC(=O)[C@@H](NC(=O)[C@H](Cc1ccccc1)NC(=O)CNC(=O)CNC(=O)[C@@H](N)Cc1ccccc1)[C@@H](C)O)C(=O)N[C@@H](CCCNC(=N)N)C(=O)N[C@@H](CCCCN)C(=O)N[C@@H](CO)C(=O)N[C@@H](C)C(=O)N[C@@H](CCCNC(=N)N)C(=O)N[C@@H](CCCCN)C(=O)N[C@@H](CSSC[C@H](NC(=O)[C@H](CCCCN)NC(=O)[C@H](CCCNC(=N)N)NC(=O)[C@H](C)NC(=O)[C@H](CO)NC(=O)[C@H](CCCCN)NC(=O)[C@H](CCCNC(=N)N)NC(=O)[C@H](C)NC(=O)CNC(=O)[C@@H](NC(=O)[C@H](Cc1ccccc1)NC(=O)CNC(=O)CNC(=O)[C@@H](N)Cc1ccccc1)[C@@H](C)O)C(=O)N[C@@H](C)C(=O)N[C@@H](CC(N)=O)C(=O)N[C@@H](CCC(N)=O)C(N)=O)C(=O)N[C@@H](C)C(=O)N[C@@H](CC(N)=O)C(=O)N[C@@H](CCC(N)=O)C(N)=O [1h, [[Cys^14]N/OFQ-NH2]2] (I: H-FGGFTGARKSARKCANQ-NH2 / II: H-FGGFTGARKSARKCANQ-NH2; disulfide I:14-II:14; N-terminus assumed)
Human μ opioid receptor
  pEC50: < 6.00
[1]; mVD from CD-1 NOP(+/+) mice, 33 °C, mean (CL95%), 5 experiments
  potency (pEC50) for inhibition of electrically induced contractions: 6.79 (6.02–7.56)
[1]; mVD, vs N/OFQ
  decrease in mVD potency compared to N/OFQ: approximately 3 fold
[1]; onset and reversibility upon washout
  kinetics of action in mVD (in words): fully and rapidly reversible upon washout
[2]
  loss of the RR in NOP(−/−) mice (in words): completely inactive
Human δ opioid receptor
  pEC50: < 6.00
Human NOP; CHO cells coexpressing human NOP and Gαqi5, Fluo-4, 37 °C, mean (CL95%), N = 5 experiments in duplicate, read-out: Ca^2+ mobilization pEC50 (CL95%) (converted)
  EC50: < 1 nM and 0.724 nM
Human NOP; CHO cells coexpressing human NOP and Gαqi5, maximum change in percentage over baseline fluorescence, mean ± sem, N = 5 in duplicate
  Ca^2+ mobilization E max ± sem: 241 ± 38 % over the baseline
Human NOP; calcium mobilization, NOP vs μ, δ, κ receptors
  selectivity for the NOP over classical opioid receptors: more than 1000 fold
[3]; 3 nmol, CD-1 mice, N = 8–10 per group
  mice that lost the RR, 3 nmol: 75%
[3]; 10 nmol, CD-1 mice, N = 8–10 per group
  mice that lost the RR, 10 nmol: all mice
[3]; 3 and 10 nmol, only mice that lost the RR, experimental cutoff 420 min
  sleep duration (interval between loss and recovery of the RR): ≥ 420 min
[3]; mice, vs N/OFQ (and N/OFQ-NH2)
  potency in eliciting loss of the RR relative to N/OFQ: 3 fold
[3]; experimental cutoff 7 h
  duration of the effect on RR: ≥ 7 h
